For assay [1], the target named is hGLP-1R (Homo sapiens, UniProt P43220). Description: Functional cAMP formation (HTRF) in HEK-293 clonal cells expressing hGLP-1R, 0.1% bovine casein, without or with 1.0% human serum albumin. The format is cell-based. The arrangement: expressed in transfected cells. The following applies: for EC50: geometric mean. The essentials: (§1)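 Cells were stimulated with peptide for 30 min at 37° C, then intracellular cAMP was measured by competitive HTRF (665/620 nm ratio) and converted to nM using a cAMP standard curve. Relative EC50 and Emax came from four-parameter logistic fits of percent maximal response against peptide concentration.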
For orientation: cAMP levels reflect the balance of adenylyl cyclase and phosphodiesterase activity.

For assay [2], the target named is T1, human Gcg receptor (hGcgR) (Homo sapiens, UniProt P47871).
T1 construct: expressed in transfected cells; crude membranes
Description: [125I]-Glucagon binding, SPA with membranes of HEK293 cells expressing hGcgR.

For assay [3], the target named is T2, hGCGR (Homo sapiens, UniProt P47871).
T2 construct: expressed in transfected cells
Description: Functional cAMP formation (HTRF) in HEK-293 clonal cells expressing hGCGR, 0.1% bovine casein, without or with 1.0% human serum albumin. The format is cell-based. The essentials: as §1

The target of assay [4] is T3, human GLP-1 receptor (hGLP-1R) (Homo sapiens, UniProt P43220).
T3 construct: expressed in transfected cells; crude membranes
Description: [125I]-GLP-1 binding, SPA with membranes of HEK293 cells expressing hGLP-1R.

Assay [5] concerns the target T4, hGIPR (Homo sapiens, UniProt P48546).
T4 construct: expressed in transfected cells
T4 sequence (P48546 22-466): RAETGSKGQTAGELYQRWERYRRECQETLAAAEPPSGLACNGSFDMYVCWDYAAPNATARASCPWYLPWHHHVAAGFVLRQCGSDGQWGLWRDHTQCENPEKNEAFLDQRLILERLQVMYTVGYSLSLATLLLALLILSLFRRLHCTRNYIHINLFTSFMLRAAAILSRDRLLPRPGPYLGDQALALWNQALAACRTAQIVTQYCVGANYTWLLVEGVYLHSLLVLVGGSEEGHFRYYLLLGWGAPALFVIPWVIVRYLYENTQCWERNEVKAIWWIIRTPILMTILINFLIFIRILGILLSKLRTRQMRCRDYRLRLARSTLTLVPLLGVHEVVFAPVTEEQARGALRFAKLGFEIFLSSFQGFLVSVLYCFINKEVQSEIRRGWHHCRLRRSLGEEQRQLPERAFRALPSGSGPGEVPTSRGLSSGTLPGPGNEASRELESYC
Description: Functional cAMP formation (HTRF) in HEK-293 clonal cells expressing hGIPR, 0.1% bovine casein, without or with 1.0% human serum albumin. The format is cell-based. As to conditions: for EC50: geometric mean. The essentials: as §1

Where [6] appears, read: human GcgR, geometric mean (SEM, n), read-out: Binding Affinity Ki, nM (SEM, n) hGCGR.
The mark [7] stands for this setting: human GLP-1R, geometric mean (SEM, n), read-out: Binding Affinity Ki, nM (SEM, n) hGLP-1R.

Where two headings read alike, the source gives them in different places.

As a reminder, the Emax is the size of the effect at its maximum, as opposed to the concentration needed. A word on the EC50: it is the concentration giving half of the maximal effect. As usually defined, the Ki is the dissociation constant of the complex between target and ligand, obtained from inhibition or displacement.

hGLP-1R, sequence (P43220 24-463): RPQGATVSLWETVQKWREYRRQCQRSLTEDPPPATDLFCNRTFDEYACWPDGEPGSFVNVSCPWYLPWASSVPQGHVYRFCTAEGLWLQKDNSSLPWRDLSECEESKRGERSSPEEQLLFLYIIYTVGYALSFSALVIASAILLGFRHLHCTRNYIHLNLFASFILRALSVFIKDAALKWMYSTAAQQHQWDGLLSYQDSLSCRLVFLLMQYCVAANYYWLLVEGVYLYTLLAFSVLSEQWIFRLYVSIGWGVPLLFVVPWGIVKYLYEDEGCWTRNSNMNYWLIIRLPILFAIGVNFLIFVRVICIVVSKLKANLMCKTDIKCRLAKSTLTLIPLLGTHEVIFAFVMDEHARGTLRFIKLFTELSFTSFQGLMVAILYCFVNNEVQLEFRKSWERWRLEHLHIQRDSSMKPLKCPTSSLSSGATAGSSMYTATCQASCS
T1 sequence (P47871 26-477): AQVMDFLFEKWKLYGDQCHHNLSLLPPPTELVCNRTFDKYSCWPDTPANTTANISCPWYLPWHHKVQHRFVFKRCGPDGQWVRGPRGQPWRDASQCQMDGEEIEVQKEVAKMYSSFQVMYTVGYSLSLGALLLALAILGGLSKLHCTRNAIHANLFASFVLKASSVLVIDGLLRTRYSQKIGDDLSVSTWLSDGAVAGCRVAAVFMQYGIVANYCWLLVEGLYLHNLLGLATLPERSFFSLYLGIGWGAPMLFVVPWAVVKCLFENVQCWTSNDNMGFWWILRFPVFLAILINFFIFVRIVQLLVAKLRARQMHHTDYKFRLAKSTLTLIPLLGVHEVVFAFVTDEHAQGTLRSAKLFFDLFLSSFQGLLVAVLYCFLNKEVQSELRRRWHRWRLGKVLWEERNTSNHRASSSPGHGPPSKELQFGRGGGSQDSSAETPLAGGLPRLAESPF
T2 sequence (P47871 26-477): as above

Take `CC[C@H](C)[C@H](NC(=O)[C@H](CC(C)C)NC(=O)[C@](C)(Cc1ccc(O)cc1)NC(=O)[C@H](CCCCNC(=O)COCCOCCNC(=O)[C@H]1CC[C@H](CNC(=O)CC[C@H](NC(=O)CCCCCCCCCCCCC(=O)O)C(=O)O)CC1)NC(=O)[C@@H](NC(=O)[C@H](Cc1ccccc1)NC(=O)[C@H](CCCN)NC(=O)C(C)(C)NC(=O)[C@H](CCC(N)=O)NC(=O)[C@H](C)NC(=O)[C@H](CCC(N)=O)NC(=O)[C@H](CCCN)NC(=O)[C@H](CC(=O)O)NC(=O)[C@H](CC(C)C)NC(=O)[C@](C)(CC(C)C)NC(=O)[C@@H](NC(=O)C(C)(C)NC(=O)[C@H](Cc1ccncc1)NC(=O)[C@H](CC(=O)O)NC(=O)[C@H](CO)NC(=O)[C@@H](NC(=O)[C@](C)(Cc1ccccc1F)NC(=O)[C@@H](NC(=O)CNC(=O)[C@H](CCC(=O)O)NC(=O)C(C)(C)NC(=O)[C@@H](N)Cc1ccc(O)cc1)[C@@H](C)O)[C@@H](C)O)[C@@H](C)CC)[C@@H](C)CC)C(=O)N[C@@H](CCCCNC(=O)COCCOCCNC(=O)[C@H]1CC[C@H](CNC(=O)CC[C@H](NC(=O)CCCCCCCCCCCCC(=O)O)C(=O)O)CC1)C(=O)NCC(=O)NCC(=O)N1CCC[C@H]1C(=O)N[C@@H](CO)C(=O)N[C@@H](CO)C(=O)NCC(=O)N[C@@H](C)C(=O)N1CCC[C@H]1C(=O)N1CCC[C@H]1C(=O)N1CCC[C@H]1C(=O)N[C@@H](CO)C(N)=O` [Example 472]: the maximum response (Emax) in assay [1] (HEK293, cAMP, 37° C., 0.1% bovine casein, percent of maximal response to GLP-1(7-36)NH2, arithmetic mean, read-out: hGLP-1R Emax, % ± SEM) was determined as 118%; in assay [5] (HEK293, cAMP, 37° C., 0.1% bovine casein and 1.0% human serum albumin, percent of maximal response to GIP(1-42)NH2, read-out: hGIPR Emax, % ± SEM) it was 76.3%. For the same compound, the concentration for a half-maximal effect (EC50) is 0.154 nM in assay [1] (cAMP, 37° C., 0.1% bovine casein (no human serum albumin), read-out: hGLP-1R EC50, nM (SEM, n)); over 9950 nM in assay [3] (cAMP, 37° C., 0.1% bovine casein (no human serum albumin), geometric mean, read-out: hGCGR EC50, nM (SEM, n)); over 9950 nM in assay [3] (cAMP, 37° C., 0.1% bovine casein and 1.0% human serum albumin, geometric mean (SEM, n), read-out: hGCGR EC50, nM (SEM, n)); 0.0131 nM in assay [5] (cAMP, 37° C., 0.1% bovine casein (no human serum albumin), read-out: hGIPR EC50, nM (SEM, n)). In addition, the Ki in assay [2] (setting [6]) came out at 258 nM; in assay [4] (setting [7]), 0.254 nM.

On to `CC[C@H](C)[C@H](NC(=O)[C@H](CC(C)C)NC(=O)[C@](C)(Cc1ccc(O)cc1)NC(=O)[C@@H](CCC(=O)O)NC(=O)[C@@H](NC(=O)[C@H](Cc1ccccc1)NC(=O)[C@H](CCC(=O)O)NC(=O)C(C)(C)NC(=O)[C@H](CCC(N)=O)NC(=O)[C@H](C)NC(=O)[C@H](CCCCNC(=O)COCCOCCNC(=O)COCCOCCNC(=O)CC[C@H](NC(=O)CCCCCCCCCCCCC(=O)O)C(=O)O)NC(=O)[C@H](CCCN)NC(=O)[C@H](CC(=O)O)NC(=O)[C@H](CC(C)C)NC(=O)[C@](C)(CC(C)C)NC(=O)[C@@H](NC(=O)[C@H](CO)NC(=O)[C@H](Cc1ccncc1)NC(=O)[C@H](CC(=O)O)NC(=O)[C@H](CO)NC(=O)[C@@H](NC(=O)[C@](C)(Cc1ccccc1F)NC(=O)[C@@H](NC(=O)CNC(=O)[C@H](CCC(=O)O)NC(=O)C(C)(C)NC(=O)[C@@H](N)Cc1ccc(O)cc1)[C@@H](C)O)[C@@H](C)O)[C@@H](C)CC)[C@@H](C)CC)C(=O)N[C@@H](CCC(=O)O)C(=O)NCC(=O)NCC(=O)N[C@@H](CCCCNC(=O)COCCOCCNC(=O)COCCOCCNC(=O)CC[C@H](NC(=O)CCCCCCCCCCCCC(=O)O)C(=O)O)C(=O)N[C@@H](CO)C(=O)N[C@@H](CO)C(=O)NCC(=O)N[C@@H](C)C(=O)N1CCC[C@H]1C(=O)N1CCC[C@H]1C(=O)N1CCC[C@H]1C(=O)N[C@@H](CO)C(N)=O` [Example 1], for which the concentration giving a half-maximal response (EC50) is 30.7 nM in assay [1] (0.1% bovine casein and 1.0% human serum albumin, 37° C., read-out: hGLP-1R EC50, nM (SEM, n)); over 9950 nM in assay [3] (0.1% bovine casein and 1.0% human serum albumin, 37° C., geometric mean, read-out: hGCGR EC50, nM (SEM, n)); over 9950 nM in assay [3] (cAMP, incubated at 37° C., 0.1% bovine casein (no human serum albumin), geometric mean, read-out: hGCGR EC50, nM (SEM, n)); 0.696 nM in assay [5] (0.1% bovine casein and 1.0% human serum albumin, 37° C., read-out: hGIPR EC50, nM (SEM, n)); 0.0145 nM in assay [5] (cAMP, incubated at 37° C., 0.1% bovine casein (no human serum albumin), read-out: hGIPR EC50, nM (SEM, n)). In addition, the Emax in assay [1] (HEK293, 0.1% bovine casein and 1.0% human serum albumin, 37° C., percent of maximal response to GLP-1(7-36)NH2, read-out: hGLP-1R Emax, % ± SEM) is 94.3 ± 4.39%; in assay [1] (HEK293, percent of maximal response to GLP-1(7-36)NH2, 37° C., 0.1% bovine casein, arithmetic mean, read-out: hGLP-1R Emax, % ± SEM), 97 ± 4.47%; in assay [5] (HEK293, 0.1% bovine casein and 1.0% human serum albumin, 37° C., percent of maximal response to GIP(1-42)NH2, read-out: hGIPR Emax, % ± SEM) it was 87.5 ± 3.24%; in assay [5] (HEK293, percent of maximal response to GIP(1-42)NH2, 37° C., 0.1% bovine casein, arithmetic mean, read-out: hGIPR Emax, % ± SEM), 90.2 ± 2.82%. The Ki in assay [2] (setting [6]) is over 969 nM; in assay [4] (setting [7]) it was 2.33 nM.

Turning to `CC[C@H](C)[C@H](NC(=O)[C@H](CC(C)C)NC(=O)[C@](C)(Cc1ccc(O)cc1)NC(=O)[C@@H](CCC(=O)O)NC(=O)[C@@H](NC(=O)[C@H](Cc1ccccc1)NC(=O)[C@H](CCC(=O)O)NC(=O)C(C)(C)NC(=O)[C@H](CCC(N)=O)NC(=O)[C@H](C)NC(=O)[C@H](CCCCNC(=O)COCCOCCNC(=O)COCCOCCNC(=O)CC[C@H](NC(=O)CCCCCCCCCOc1ccc(C(=O)O)cc1)C(=O)O)NC(=O)[C@H](CCCN)NC(=O)[C@H](CC(=O)O)NC(=O)[C@H](CC(C)C)NC(=O)[C@](C)(CC(C)C)NC(=O)[C@@H](NC(=O)[C@H](CO)NC(=O)[C@H](Cc1ccncc1)NC(=O)[C@H](CC(=O)O)NC(=O)[C@H](CO)NC(=O)[C@@H](NC(=O)[C@](C)(Cc1ccccc1F)NC(=O)[C@@H](NC(=O)CNC(=O)[C@H](CCC(=O)O)NC(=O)C(C)(C)NC(=O)[C@@H](N)Cc1ccc(O)cc1)[C@@H](C)O)[C@@H](C)O)[C@@H](C)CC)[C@@H](C)CC)C(=O)N[C@@H](CCC(=O)O)C(=O)NCC(=O)NCC(=O)N[C@@H](CCCCNC(=O)COCCOCCNC(=O)COCCOCCNC(=O)CC[C@H](NC(=O)CCCCCCCCCOc1ccc(C(=O)O)cc1)C(=O)O)C(=O)N[C@@H](CO)C(=O)N[C@@H](CO)C(=O)NCC(=O)N[C@@H](C)C(=O)N1CCC[C@H]1C(=O)N1CCC[C@H]1C(=O)N1CCC[C@H]1C(=O)N[C@@H](CO)C(N)=O` [Example 2], the maximal response (Emax) in assay [1] (HEK293, read-out: hGLP-1R Emax, % ± SEM, percent of maximal response to GLP-1(7-36)NH2, 37° C., 0.1% bovine casein, arithmetic mean) was 93.1 ± 5.83%; in assay [5] (HEK293, read-out: hGIPR Emax, % ± SEM, 0.1% bovine casein and 1.0% human serum albumin, 37° C., percent of maximal response to GIP(1-42)NH2), 87.8 ± 5.11%; in assay [5] (HEK293, read-out: hGIPR Emax, % ± SEM, percent of maximal response to GIP(1-42)NH2, 37° C., 0.1% bovine casein, arithmetic mean), 93 ± 0.813%. The EC50 is 32.1 nM in assay [1] (hGLP-1R EC50, nM (SEM, n), 0.1% bovine casein and 1.0% human serum albumin, 37° C.); 1.14 nM in assay [1] (hGLP-1R EC50, nM (SEM, n), cAMP, incubated at 37° C., 0.1% bovine casein (no human serum albumin)); over 9950 nM in assay [3] (hGCGR EC50, nM (SEM, n), 0.1% bovine casein and 1.0% human serum albumin, 37° C., geometric mean); over 9950 nM in assay [3] (hGCGR EC50, nM (SEM, n), cAMP, incubated at 37° C., 0.1% bovine casein (no human serum albumin), geometric mean); 0.659 nM in assay [5] (hGIPR EC50, nM (SEM, n), 0.1% bovine casein and 1.0% human serum albumin, 37° C.); 0.0154 nM in assay [5] (hGIPR EC50, nM (SEM, n), cAMP, incubated at 37° C., 0.1% bovine casein (no human serum albumin)). The figures for the Ki in assay [2] and in assay [4] were over 958 nM and 1.04 nM, respectively.

These data come from patent US20230265151A1, “GIP/GLP1 CO-AGONIST COMPOUNDS” (priority 2020, published 2023).
